The values that follow come from patent publication US20020168396A1 (priority 2001, published 2002).

“And” between values parts separate entries of the source, which are not always exact repeats. Equal values may be shown once. Read-outs that look alike come from different tables or passages of the source.

The test system of assay [1] is internal mammary artery (IMA). The assay is classed as cell-based. Also noted: Diameter of the conduit, 0 hrs. / Diameter of the conduit, 2 hrs. / Diameter of the conduit, 12 hrs. / Diameter of the conduit, 24 hrs. / Diameter of the conduit, 48 hrs. / Diameter of the conduit, 72 hrs.: unit not given here.
Assay [2] concerns radial artery. It is filed as cell-based. Also noted: Diameter of the conduit, 0 hrs. / Diameter of the conduit, 2 hrs. / Diameter of the conduit, 12 hrs. / Diameter of the conduit, 24 hrs. / Diameter of the conduit, 72 hrs.: unit not given here.
Assay [3] deals with saphenous vein. It is filed as cell-based. Also noted: Diameter of the conduit, 0 hrs. / Diameter of the conduit, 2 hrs. / Diameter of the conduit, 12 hrs. / Diameter of the conduit, 24 hrs. / Diameter of the conduit, 48 hrs. / Diameter of the conduit, 72 hrs.: unit not given here.
For assay [4] the following is noted: topical vasodilators used to overcome vasospasm; cited from earlier work.
The mark [5] stands for this setting: IMA, NTG 0.5 micromol/L, verapamil 100 nanomol/L.
Where [6] appears, read: Radial, NTG 0.5 micromol/L, verapamil 100 nanomol/L.
Setting [7] is: Vein, NTG 0.5 micromol/L, verapamil 100 nanomol/L.

As for `O=[N+]([O-])OCC(CO[N+](=O)[O-])O[N+](=O)[O-]` [NTG, nitroglycerine], in assay [1], the “Aug % (maximum increase in diameter at a given time point compared to baseline)” value is 73% and 50% and 47%; the “Diameter of the conduit, 0 hrs.” value is 1.5 and 2.2 and 2.3; the “Diameter of the conduit, 2 hrs.” value is 2.1 and 2.4 and 2.7; the “Diameter of the conduit, 12 hrs.” value is 2.3 and 2.5 and 2.8. Besides, in assay [1], the “Diameter of the conduit, 24 hrs.” value was 2.3 and 2.6; the “Diameter of the conduit, 48 hrs.” value was 2.4 and 2.8 and 2.9; the “Diameter of the conduit, 72 hrs.” value is 2.9 and 3.1 and 3.4. In assay [2], the “Aug % (maximum increase in diameter at a given time point compared to baseline)” value was 52% and 44% and 42%; the “Diameter of the conduit, 0 hrs.” value is 2.5 and 2.3 and 2.6; the “Diameter of the conduit, 2 hrs.” value was 2.9 and 3.0 and 3.3; the “Diameter of the conduit, 12 hrs.” value was 3.6 and 3.0 and 3.5. In addition, in assay [2], the “Diameter of the conduit, 24 hrs.” value is 3.8 and 2.9 and 3.7; the “Diameter of the conduit, 48 hrs.” value turned out to be 3.7; the “Diameter of the conduit, 72 hrs.” value is 3.8 and 3.3 and 3.7. For the same compound, in assay [3], the “Aug % (maximum increase in diameter at a given time point compared to baseline)” value was 66% and 67% and 51%; the “Diameter of the conduit, 0 hrs.” value was 2.4 and 3.7 and 2.7; the “Diameter of the conduit, 2 hrs.” value is 4.0 and 6.2; the “Diameter of the conduit, 12 hrs.” value is 3.8 and 6.0 and 4.1. Also, in assay [3], the “Diameter of the conduit, 24 hrs.” value is 4.1 and 5.9 and 3.8; the “Diameter of the conduit, 48 hrs.” value is 3.7 and 6.1 and 3.9; the “Diameter of the conduit, 72 hrs.” value was 3.7 and 6.2.

As for `COc1ccc(Cc2nccc3cc(OC)c(OC)cc23)cc1OC` [papaverine], the “increase in free flow” value in assay [4] was 70%.

As for `COc1ccc(CCN(C)CCCC(C#N)(c2ccc(OC)c(OC)c2)C(C)C)cc1OC` (stereo not shown) [verapamil], in assay [1] (setting [5]), the “Diameter of the conduit, 2 hrs.” value is 2.4 and 2.1 and 2.7; the “Diameter of the conduit, 12 hrs.” value was 2.6 and 2.4 and 2.8; the “Diameter of the conduit, 24 hrs.” value is 2.5 and 2.3 and 2.9; the “Diameter of the conduit, 48 hrs.” value is 3.0 and 2.5. In assay [1] (setting [5]), the “Diameter of the conduit, 72 hrs.” value was 2.9 and 2.7 and 3.1; the “Aug % (maximum increase in diameter at a given time point compared to baseline)” value was 61% and 59% and 64%. Besides, in assay [1] (IMA, baseline 0 hrs, Kreb's solution 37° C., NTG 0.5 micromol/L, verapamil 100 nanomol/L), the “Diameter of the conduit, 0 hrs.” value was 1.8 and 1.7 and 1.9. Moreover, in assay [2] (setting [6]), the “Diameter of the conduit, 2 hrs.” value was 3.5 and 3.9 and 4.1; the “Diameter of the conduit, 12 hrs.” value was 3.5 and 3.9; the “Diameter of the conduit, 24 hrs.” value amounted to 3.8; the “Diameter of the conduit, 48 hrs.” value is 3.6 and 3.8. In assay [2] (setting [6]), the “Diameter of the conduit, 72 hrs.” value was 3.6 and 3.9; the “Aug % (maximum increase in diameter at a given time point compared to baseline)” value is 57% and 62% and 52%. Further, the “Diameter of the conduit, 0 hrs.” value in assay [2] (Radial, baseline 0 hrs, Kreb's solution 37° C., NTG 0.5 micromol/L, verapamil 100 nanomol/L) is 2.3 and 2.4 and 2.7. Further, in assay [3] (setting [7]), the “Diameter of the conduit, 2 hrs.” value is 5.1 and 5.2 and 5.5; the “Diameter of the conduit, 12 hrs.” value was 4.8 and 5.7 and 5.3; the “Diameter of the conduit, 24 hrs.” value is 5.0 and 5.8 and 5.2; the “Diameter of the conduit, 48 hrs.” value was 4.7 and 5.7 and 5.5. In addition, in assay [3] (setting [7]), the “Diameter of the conduit, 72 hrs.” value was 4.8 and 5.8 and 5.4; the “Aug % (maximum increase in diameter at a given time point compared to baseline)” value was 70% and 65% and 66%. In addition, in assay [3] (Vein, baseline 0 hrs, Kreb's solution 37° C., NTG 0.5 micromol/L, verapamil 100 nanomol/L), the “Diameter of the conduit, 0 hrs.” value was 3.0 and 3.5 and 3.3.
